Assay: gradient 5% acetonitrile 3 min, to 50% in 2 min, to 85% in 15 min, held 3 min, 100 µL/min
Settings: column: Zorbax Extend-C18 2.1 x 50 mm; eluents: water / acetonitrile, 0.1% formic acid
How it was run: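 The system's dead and dwell volumes were 40 μL and 900 μL, with a Zorbax Extend-C18 column (2.1 × 50 mm, 1.8 μm) run at 100 μL/min in water and acetonitrile containing 0.1% formic acid each. Pure standards were analyzed in mixtures of ~100 molecules by HPLC–quadrupole time-of-flight mass spectrometry in positive and negative ionization mode. Retention time was assigned from computationally picked, manually inspected adduct peaks.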

SMILES	RP-LC retention time [s]
COc1ccc(OC)c(S(=O)(=O)N2CCC(Cc3ncc(C)n3C3CC3)C2)c1 (stereo not given)	656
CC1CCN(C(=O)CSCc2nc3cccnc3n2C2CCCCC2)CC1	960
COC(=O)C[C@](O)(CCCC(C)(C)O)C(=O)O[C@@H]1C(OC)=C[C@]23CCCN2CCc2cc4c(cc2[C@H]13)OCO4	662
CC(C)NC(=O)C1CN(S(=O)(=O)c2ccccc2)c2cc(C(C)(C)C)ccc2O1 (stereo not given)	780
CCn1nccc1C1CCCN1C(=O)c1c(Cl)cnn1C (stereo not given)	677
COc1cccc(-c2nnc(Cc3nc(-c4cccc(F)c4)no3)o2)c1	991
Cc1ccc(-c2nc(CN3CCSCC3)c(C)o2)cc1	680
COCc1ncc(C)n1CCNC(=O)NC1CCCCC1	587
COc1ccc(S(=O)(=O)N2CCCC(C(=O)NCCCO)C2)cc1C (stereo not given)	709
COc1cccc(S(=O)(=O)N2CCN(c3cnn4c(C)nnc4c3)CC2)c1	671
Cc1cc(C)c(S(=O)(=O)N2CCC(c3cc(N)on3)CC2)cc1C	879
Cc1cc(F)ccc1NC(=O)C1CCc2nc(N3CCOCC3)ncc2C1 (stereo not given)	735
CNC(=O)c1sc2nc(-c3ccccc3)c(NCCCOC)n2c1C	684
Cc1oc(C2CCN(S(=O)(=O)c3cccc(F)c3)CC2)nc1C(=O)N(C)C	798
CCc1ccc(NC(=O)N2CC(c3nc(C)no3)C3(CCOCC3)C2)cc1 (stereo not given)	770
COc1ccc(N2CCN(c3nc(C(=O)N4CCOCC4)cs3)CC2)cc1	716
Cc1cnc(C2CC2)n1C1CCN(C(=O)c2cccn2C)C1 (stereo not given)	583
CN1C2CCC1CC(OC(=O)c1c[nH]c3ccccc13)C2 (stereo not given)	644
Cc1nn(C)c(C)c1CCNC(=O)Nc1ccccc1Br	651

SMILES	RP-LC retention time [s]
CCn1ccc(C(=O)N2CC(N(C3CCOCC3)S(C)(=O)=O)C2)n1	625
O=C(Nc1cnc(N2CCCC2)nc1)c1cc(F)cc(F)c1	765
Cc1ccc(-c2nnc(Cc3nc(-c4cccc(F)c4)no3)o2)cc1	1060
CSc1cccc(NC(=O)Cn2c(C)cc(-c3nnc(C)o3)c2C)c1	790
Cc1oc(-c2[nH]ncc2C(=O)N2CCCC2)cc1S(=O)(=O)N1CCN(CC(C)C)CC1	580
Cc1noc(-c2nc(-c3ccc(OC(C)C)cc3)no2)n1	1120
CC1(C)Cc2cccc(OCC(=O)N3CCN(CCn4cccn4)CC3)c2O1	583
Cc1cc(C#N)cc(C)c1Oc1nc(Nc2ccc(C#N)cc2)nc(N)c1Br	1100
CCn1cc(CN2CCC(N3C(=O)C4(CCCCC4)C3c3ccncc3)CC2)c(C)n1 (stereo not given)	532
CS(=O)(=O)c1ccc2nc(NC(=O)c3ccc([N+](=O)[O-])o3)sc2c1	679
Cc1csc(-c2cc(S(=O)(=O)Nc3cccc(Cl)c3)c(C)s2)n1	1060
Cc1nc(-c2csc(S(=O)(=O)N3CCC(C(=O)NCCN4CCOCC4)CC3)c2)no1	596
CCCCN(C)C(=O)C1CCN(c2cncnc2N2CCOCC2)CC1	614
CN(Cc1nc(-c2ccc(N3CCSCC3)nc2)no1)C1CCCCC1	694
COc1ccccc1-c1nnc(Nc2nc3ccc(SC)cc3s2)o1	830
Cc1nsc2ncc(C(=O)N3CCOCC3)c(N3CCC(C(=O)Nc4ccccc4Br)CC3)c12	813
CN(C)[C@@H]1CN(C(=O)COc2ccc(Cl)cc2)C[C@H]1CO	598
N#Cc1ccc(C(=O)Nc2cnc(N3CCCCCC3)nc2)cc1	891

Further lines, results first:

RP-LC retention time [s]	SMILES
643	CCOc1ccc(NC(=O)C2CCCN(C)C2)cc1 (stereo not given)
816	Cc1noc(C)c1S(=O)(=O)N1CCC(CC(=O)NCCc2c[nH]c3ccccc23)CC1
777	Cc1noc(C)c1C1CCCN1C(=O)Cc1cccc(F)c1 (stereo not given)
785	Cc1ccc2c(c1)C(O)(CC(=O)c1cccc(Cl)c1)C(=O)N2 (stereo not given)
640	CCN1CCN(c2c(S(=O)(=O)c3ccc(OC)cc3)cnc3ccc(OC)cc23)CC1
974	CC(=O)N1CCc2c([nH]c3ccccc23)C12C(=O)N(CC(C)C)c1ccc(Br)cc12 (stereo not given)
923	O=C(Nc1ccc2oc(-c3ccccc3)nc2c1)C1CCN(c2cnn(Cc3ccccc3)c(=O)c2)C1 (stereo not given)
721	Cc1cccc(-c2ncccc2CNS(=O)(=O)c2cccc(C)c2)c1
655	CCCNC(=O)C1CCCN(c2ccc(SCC(=O)Nc3ccccc3C)nn2)C1 (stereo not given)
719	Cc1ccc(-c2ccc(N3CCCC(C(=O)NCc4ccco4)C3)nn2)cc1C (stereo not given)
997	COc1ccc(NC(=O)Cn2nc(N3CCCC(C)C3)c3ccccc3c2=O)cc1OC (stereo not given)
823	COc1ccc(NC(=O)N2CCN(Cc3nc4cc(-c5ccccc5)ccc4o3)CC2)cc1
849	COCCCNC(=O)CN1C(=O)CC(c2ccc(Br)s2)=Nc2ccccc21
684	Cc1ccc(Cc2c(C)nc3c(C(=O)NCCCN4CCOCC4)cnn3c2C)cc1
1090	O=C(O)c1cc(-c2cccc3ccccc23)nc2ccc(Br)cc12
867	CCS(=O)(=O)Nc1cccc(OCc2nnc(-c3ccc(C)cc3)o2)c1
896	Clc1ccc(-c2nc(-c3ccc4nncn4c3)no2)cc1
774	O=C(NCCc1csc(-c2cccs2)n1)C1CCN(C(=O)Cc2ccc(F)cc2)CC1
704	Cc1nc2sccn2c(=O)c1NC(=O)Nc1ccc(C(C)C)cc1
1020	O=C(c1c(F)cccc1Cl)N1CCc2nc(-c3ccc(F)cc3)ncc2C1
639	Nc1ccc2c(c1)CN1C(=O)c3ccccc3C1=N2
711	COc1ccc(CC(=O)N2CCC3(CC2)NC(=O)c2ccccc2N3C)cc1OC
948	CCOC(=O)c1noc2ncnc(N(CC)c3ccccc3)c12
753	CCOCCCNC(=O)CCc1nnc2c3cc(-c4ccc(C)c(C)c4)nn3ccn12
794	COc1cc(OC)cc(C(=O)N2CCN(c3cc(-c4cccs4)[nH]n3)CC2)c1
660	COc1ccc(Cl)cc1S(=O)(=O)N1CCCC(C(=O)NCc2ccccn2)C1 (stereo not given)
1070	COc1ccccc1N1CCN(c2cc(SCC(=O)Nc3cc(C)cc(C)c3)ncn2)CC1

RP-LC retention time [s]	SMILES
934	CCOC(=O)COc1cccc2c1CCN(Cc1ccc(Cl)cc1)C2=O
692	CCOc1ccc(Cl)cc1S(=O)(=O)N1CCC(C(=O)NCCO)CC1
959	CCCN(CC1CCOC1)C(=O)Nc1ccc(C)c(Cl)c1 (stereo not given)
1100	Cc1ccc(-n2c(=O)c3sccc3n(Cc3nc(-c4cccc(C(F)(F)F)c4)no3)c2=O)cc1
1260	Fc1cccc(-c2noc(Cc3nc(-c4ccccc4Cl)cs3)n2)c1
854	CCc1ccc(NS(=O)(=O)c2cc(-c3ccn[nH]3)sc2C)cc1
976	COc1cccc(N2C(=O)C3N=NN(Cc4nc(-c5ccccc5C)no4)C3C2=O)c1 (stereo not given)
617	CCn1c(=O)c2c(C(=O)N3CCN(c4ccccn4)CC3)cc(=O)n(CC)c2n(C)c1=O
840	CCOC(=O)C1C(=O)C=C(c2cccc(NS(C)(=O)=O)c2)CC1c1ccccc1F (stereo not given)
878	CC(C)N1C(=O)c2cccnc2Sc2cc(NC(=O)c3ccc4c(c3)OCO4)ccc21
581	COc1ccc(-n2nc(C(N)=O)c(=O)cc2OC)cc1
947	CCc1cccc(C)c1Nc1c(-c2ccccc2)nc2cnccn12
1040	CCOc1ccccc1NC(=O)N1CCC(c2cnn(-c3ccccc3)c2)CC1
809	COc1cc(NC(=O)Cn2cc(-c3nnc(C)o3)c3ccccc32)cc(OC)c1
682	Cc1ccc(NC(=O)N2CCCC(Cn3cnc4cccnc43)C2)c(Cl)c1 (stereo not given)
806	CS(=O)(=O)N1CCCc2ccc(NS(=O)(=O)c3ccccc3Cl)cc21
735	COC(=O)c1c(C)[nH]c(C(=O)N2CCCC(C(=O)NCc3ccc(OC)cc3)C2)c1C (stereo not given)
1110	Cc1ccc(C)c(-c2coc(-c3ccc(NC(=O)NCc4ccco4)cc3)n2)c1
702	CCOC(=O)c1c(C)oc2nc(C)nc(NCC3CCN(Cc4ccccc4F)CC3)c12
1020	CC(C)n1c(=O)sc2cc(S(=O)(=O)N3CCC(C(=O)Nc4ccc(F)c(F)c4)CC3)ccc21
688	Cc1cccc(-n2ncc(C(=O)N3CCN(c4ccccn4)CC3)c2-n2cccc2)c1
751	COCc1nc(-c2ccc(OC3CCN(Cc4ccc(C(F)(F)F)cc4)C3)cc2)no1 (stereo not given)
772	COc1ccc(-c2nnc(-c3cc(S(=O)(=O)NCC(=O)O)ccc3Cl)o2)cc1
609	COc1ccc(NC(=O)N2CCN(c3nc4ccccc4n3C)CC2)c(OC)c1
776	COc1ccc(NC(=O)c2c[nH]c3nc(C)ccc3c2=O)cc1
774	O=C1CC(c2cccc(F)c2)c2c(c(C(=O)O)cn2-c2ccc(F)cc2)N1 (stereo not given)
